Assays:
Adenosine receptor A3 = target: T1, Adenosine receptor A3 (Homo sapiens, UniProt P0DMS8)
T1 sequence (P0DMS8 whole entry): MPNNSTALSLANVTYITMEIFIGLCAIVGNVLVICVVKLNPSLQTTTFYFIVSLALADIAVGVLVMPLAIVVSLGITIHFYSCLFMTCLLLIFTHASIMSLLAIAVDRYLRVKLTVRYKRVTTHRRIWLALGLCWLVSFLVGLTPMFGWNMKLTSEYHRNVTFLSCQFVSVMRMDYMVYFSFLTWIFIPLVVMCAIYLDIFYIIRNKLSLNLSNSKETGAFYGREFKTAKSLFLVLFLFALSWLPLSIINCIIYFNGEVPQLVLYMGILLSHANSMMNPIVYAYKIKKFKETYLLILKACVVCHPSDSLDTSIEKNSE

[1] = target: T2, Alpha-2A adrenergic receptor (Homo sapiens, UniProt P08913); type: functional, cell-based
T2 sequence (P08913 whole entry): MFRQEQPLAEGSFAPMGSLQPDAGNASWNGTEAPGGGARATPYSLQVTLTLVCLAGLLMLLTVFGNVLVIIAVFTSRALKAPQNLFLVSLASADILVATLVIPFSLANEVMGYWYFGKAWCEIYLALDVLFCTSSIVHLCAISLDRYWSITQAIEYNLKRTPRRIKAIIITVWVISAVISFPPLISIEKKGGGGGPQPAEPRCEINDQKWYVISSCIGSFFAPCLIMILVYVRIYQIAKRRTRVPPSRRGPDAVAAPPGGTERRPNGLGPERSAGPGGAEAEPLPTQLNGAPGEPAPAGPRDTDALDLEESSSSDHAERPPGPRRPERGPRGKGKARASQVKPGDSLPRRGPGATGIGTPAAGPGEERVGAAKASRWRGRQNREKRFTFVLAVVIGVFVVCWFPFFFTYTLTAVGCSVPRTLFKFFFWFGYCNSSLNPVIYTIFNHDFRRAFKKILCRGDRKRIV

[2] = target: T3, Equilibrative nucleoside transporter 1 (Homo sapiens, UniProt Q99808)
T3 sequence (Q99808 whole entry): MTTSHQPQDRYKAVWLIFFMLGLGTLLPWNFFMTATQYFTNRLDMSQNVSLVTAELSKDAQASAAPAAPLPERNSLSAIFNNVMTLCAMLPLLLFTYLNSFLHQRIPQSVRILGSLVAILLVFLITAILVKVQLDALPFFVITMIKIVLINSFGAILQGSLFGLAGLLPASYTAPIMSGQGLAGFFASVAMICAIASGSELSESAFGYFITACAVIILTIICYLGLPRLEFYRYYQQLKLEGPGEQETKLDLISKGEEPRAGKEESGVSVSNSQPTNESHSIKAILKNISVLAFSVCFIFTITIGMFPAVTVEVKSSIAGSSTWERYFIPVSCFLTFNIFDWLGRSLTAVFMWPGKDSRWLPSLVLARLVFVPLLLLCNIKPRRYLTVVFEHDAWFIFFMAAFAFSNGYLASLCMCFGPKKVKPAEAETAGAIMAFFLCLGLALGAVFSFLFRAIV

Progesterone receptor = target: T4, Progesterone receptor (Homo sapiens, UniProt P06401); type: functional
T4 sequence (P06401 whole entry): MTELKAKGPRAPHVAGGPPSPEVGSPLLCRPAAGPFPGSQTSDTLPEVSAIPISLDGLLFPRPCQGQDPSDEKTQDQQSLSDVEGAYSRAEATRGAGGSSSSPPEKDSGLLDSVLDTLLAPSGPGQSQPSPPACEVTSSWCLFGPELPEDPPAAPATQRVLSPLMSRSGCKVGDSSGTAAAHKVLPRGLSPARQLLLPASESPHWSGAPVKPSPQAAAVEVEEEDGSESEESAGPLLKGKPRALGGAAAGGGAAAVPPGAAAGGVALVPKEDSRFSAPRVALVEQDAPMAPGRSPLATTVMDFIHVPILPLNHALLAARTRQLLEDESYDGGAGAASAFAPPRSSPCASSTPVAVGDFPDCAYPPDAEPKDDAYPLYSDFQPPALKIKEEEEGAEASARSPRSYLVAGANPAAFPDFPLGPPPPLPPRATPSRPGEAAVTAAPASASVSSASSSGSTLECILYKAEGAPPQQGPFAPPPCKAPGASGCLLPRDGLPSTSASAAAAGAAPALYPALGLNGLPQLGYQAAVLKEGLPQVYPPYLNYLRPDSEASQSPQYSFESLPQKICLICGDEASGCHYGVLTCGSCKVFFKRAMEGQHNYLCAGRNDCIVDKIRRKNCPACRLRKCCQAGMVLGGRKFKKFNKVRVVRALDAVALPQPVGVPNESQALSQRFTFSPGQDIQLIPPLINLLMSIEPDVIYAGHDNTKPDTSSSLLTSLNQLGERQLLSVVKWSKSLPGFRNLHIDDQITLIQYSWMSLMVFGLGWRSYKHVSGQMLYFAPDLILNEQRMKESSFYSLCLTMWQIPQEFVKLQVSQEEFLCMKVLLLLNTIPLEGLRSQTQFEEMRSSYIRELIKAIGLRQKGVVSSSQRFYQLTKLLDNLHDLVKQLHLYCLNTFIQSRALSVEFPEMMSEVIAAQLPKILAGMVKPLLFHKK

Adenosine receptor A2a = Adenosine receptor A2a (Homo sapiens, UniProt P29274)
Adenosine receptor A2a, sequence (P29274 whole entry): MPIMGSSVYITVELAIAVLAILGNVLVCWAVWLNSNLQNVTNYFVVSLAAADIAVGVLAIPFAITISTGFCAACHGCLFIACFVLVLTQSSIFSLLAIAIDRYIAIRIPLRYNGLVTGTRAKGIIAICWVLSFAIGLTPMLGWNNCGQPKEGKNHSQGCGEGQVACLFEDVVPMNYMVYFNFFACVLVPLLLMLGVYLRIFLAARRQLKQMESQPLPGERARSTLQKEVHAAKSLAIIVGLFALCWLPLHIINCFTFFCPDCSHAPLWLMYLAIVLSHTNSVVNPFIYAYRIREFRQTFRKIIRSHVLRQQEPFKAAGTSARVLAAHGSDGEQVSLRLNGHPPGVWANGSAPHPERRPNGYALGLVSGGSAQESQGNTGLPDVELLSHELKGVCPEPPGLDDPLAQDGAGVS

[3] = target: Voltage-dependent L-type calcium channel subunit alpha-1C (Rattus norvegicus, UniProt P22002); type: functional
Voltage-dependent L-type calcium channel subunit alpha-1C, sequence (P22002 whole entry): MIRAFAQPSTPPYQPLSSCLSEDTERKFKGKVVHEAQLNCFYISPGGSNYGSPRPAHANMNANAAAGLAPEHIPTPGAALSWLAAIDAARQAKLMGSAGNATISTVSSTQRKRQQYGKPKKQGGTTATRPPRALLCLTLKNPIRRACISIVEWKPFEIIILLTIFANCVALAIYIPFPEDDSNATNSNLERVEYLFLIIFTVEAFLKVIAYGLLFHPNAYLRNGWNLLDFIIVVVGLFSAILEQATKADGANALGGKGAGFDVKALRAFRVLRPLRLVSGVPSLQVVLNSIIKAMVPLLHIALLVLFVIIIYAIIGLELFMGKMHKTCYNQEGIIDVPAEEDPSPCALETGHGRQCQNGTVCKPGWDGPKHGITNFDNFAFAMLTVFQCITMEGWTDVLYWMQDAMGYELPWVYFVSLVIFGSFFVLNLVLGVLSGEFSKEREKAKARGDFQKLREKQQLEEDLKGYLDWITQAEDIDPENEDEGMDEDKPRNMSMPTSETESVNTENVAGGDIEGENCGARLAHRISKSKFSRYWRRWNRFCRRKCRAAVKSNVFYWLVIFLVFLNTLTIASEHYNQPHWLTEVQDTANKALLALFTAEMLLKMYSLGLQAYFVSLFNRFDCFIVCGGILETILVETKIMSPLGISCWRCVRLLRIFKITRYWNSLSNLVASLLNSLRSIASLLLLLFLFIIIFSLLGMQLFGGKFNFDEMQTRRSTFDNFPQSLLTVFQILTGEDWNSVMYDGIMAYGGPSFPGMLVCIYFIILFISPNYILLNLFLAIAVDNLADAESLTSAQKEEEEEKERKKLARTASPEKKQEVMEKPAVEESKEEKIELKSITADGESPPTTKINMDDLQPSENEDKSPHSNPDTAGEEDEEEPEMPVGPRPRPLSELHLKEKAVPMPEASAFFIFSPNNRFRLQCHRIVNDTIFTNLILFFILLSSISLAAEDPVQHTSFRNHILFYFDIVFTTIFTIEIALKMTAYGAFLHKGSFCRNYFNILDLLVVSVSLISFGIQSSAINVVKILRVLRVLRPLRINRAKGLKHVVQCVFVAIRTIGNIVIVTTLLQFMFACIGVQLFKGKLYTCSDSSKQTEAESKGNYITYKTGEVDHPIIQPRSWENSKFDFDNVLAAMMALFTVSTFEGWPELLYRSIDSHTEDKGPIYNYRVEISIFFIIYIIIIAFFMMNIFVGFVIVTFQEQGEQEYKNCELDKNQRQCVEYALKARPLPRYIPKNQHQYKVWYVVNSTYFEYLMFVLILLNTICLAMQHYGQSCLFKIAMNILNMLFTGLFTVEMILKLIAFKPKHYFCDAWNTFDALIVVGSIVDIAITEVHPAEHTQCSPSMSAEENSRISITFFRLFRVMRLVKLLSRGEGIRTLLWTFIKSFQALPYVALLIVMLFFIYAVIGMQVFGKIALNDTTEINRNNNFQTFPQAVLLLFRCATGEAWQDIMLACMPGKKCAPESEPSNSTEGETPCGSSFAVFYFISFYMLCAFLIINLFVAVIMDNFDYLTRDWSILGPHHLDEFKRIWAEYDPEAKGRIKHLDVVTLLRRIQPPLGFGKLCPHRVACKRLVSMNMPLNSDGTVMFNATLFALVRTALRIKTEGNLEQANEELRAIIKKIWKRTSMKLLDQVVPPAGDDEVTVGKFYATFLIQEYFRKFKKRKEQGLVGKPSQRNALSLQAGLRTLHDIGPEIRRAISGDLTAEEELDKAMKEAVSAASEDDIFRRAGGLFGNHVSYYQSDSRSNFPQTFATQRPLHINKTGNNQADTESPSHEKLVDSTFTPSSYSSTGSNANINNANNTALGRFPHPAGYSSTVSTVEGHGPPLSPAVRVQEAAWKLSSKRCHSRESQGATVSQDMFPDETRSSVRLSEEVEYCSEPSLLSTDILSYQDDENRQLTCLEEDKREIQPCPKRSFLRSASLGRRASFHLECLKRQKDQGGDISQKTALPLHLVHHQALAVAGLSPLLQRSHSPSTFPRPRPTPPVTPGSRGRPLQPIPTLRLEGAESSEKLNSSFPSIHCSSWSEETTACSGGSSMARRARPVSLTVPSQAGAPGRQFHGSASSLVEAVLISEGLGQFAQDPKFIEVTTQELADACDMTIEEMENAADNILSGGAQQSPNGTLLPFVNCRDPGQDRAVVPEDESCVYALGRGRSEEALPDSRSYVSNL

[4] = target: T5, Alpha-1A adrenergic receptor (Homo sapiens, UniProt P35348); type: functional, cell-based
T5 sequence (P35348 whole entry): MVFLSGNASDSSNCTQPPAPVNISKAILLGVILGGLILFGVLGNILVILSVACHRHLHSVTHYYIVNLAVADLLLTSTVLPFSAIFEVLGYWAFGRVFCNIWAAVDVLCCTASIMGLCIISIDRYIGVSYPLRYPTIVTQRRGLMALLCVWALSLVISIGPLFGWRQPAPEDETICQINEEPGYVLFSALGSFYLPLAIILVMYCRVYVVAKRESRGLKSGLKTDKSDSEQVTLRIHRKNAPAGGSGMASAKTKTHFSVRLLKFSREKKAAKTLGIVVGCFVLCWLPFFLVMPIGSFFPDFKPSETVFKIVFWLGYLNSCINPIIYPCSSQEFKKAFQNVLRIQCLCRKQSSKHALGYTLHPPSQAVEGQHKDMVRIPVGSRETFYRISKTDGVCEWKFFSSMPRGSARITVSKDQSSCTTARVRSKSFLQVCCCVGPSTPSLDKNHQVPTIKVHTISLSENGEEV
Note: assay procedure not described here.

| SMILES | AC50 (Adenosine receptor A3) [µM] | AC50 [1] [µM] | AC50 [2] [µM] | AC50 (Progesterone receptor) [µM] | AC50 (Adenosine receptor A2a) [µM] | AC50 [3] [µM] | AC50 [4] [µM] |
| --- | --- | --- | --- | --- | --- | --- | --- |
| CC(C)N(CCCCOCC(=O)O)c1cnc(-c2ccccc2)c(-c2ccccc2)n1 | 10.1 | > 30 | > 30 | > 30 | > 30 | > 30 | > 30 |
| CC(=O)c1ccc(S(=O)(=O)NC(=O)NC2CCCCC2)cc1 [ACETOHEXAMIDE] | > 10 | > 30 | > 10 | > 10 | > 10 | > 10 | > 30 |
| COc1cc(C)c(/C=C/C(C)=C/C=C/C(C)=C/C(=O)O)c(C)c1C [ACITRETIN] | > 10 | > 10 | > 10 | > 30 | > 10 | > 10 | > 30 |
| CCC1(CCC(C)C)C(=O)NC(=O)NC1=O [AMOBARBITAL] | > 10 | > 10 | > 10 | > 10 | > 10 | > 10 | – |
| COc1ccc(C2C(=O)c3ccccc3C2=O)cc1 [ANISINDIONE] | > 10 | > 10 | > 10 | > 30 | > 10 | > 10 | – |
| O=C(O)CCNC(=O)c1ccc(/N=N/c2ccc(O)c(C(=O)O)c2)cc1 [BALSALAZIDE] | 27.4 | > 30 | 30 | > 30 | 33.1 | > 30 | – |
| O=C(O)c1ccc(NC(=O)[C@H](Cc2ccc(O)cc2)NC(=O)c2ccccc2)cc1 [BENTIROMIDE] | > 10 | > 10 | > 10 | > 10 | > 10 | > 10 | – |
| NS(=O)(=O)c1cc2c(cc1Cl)N=C(CSCc1ccccc1)NS2(=O)=O [BENZTHIAZIDE] | > 10 | > 10 | > 10 | > 30 | > 10 | > 10 | – |
| O=C(CCCN1CCC(O)(c2ccc(Br)cc2)CC1)c1ccc(F)cc1 [BROMPERIDOL] | > 30 | – | > 30 | > 30 | > 30 | > 30 | > 30 |
| Clc1ccc(CCC(Cn2ccnc2)Sc2c(Cl)cccc2Cl)cc1 (configuration not stated) [BUTOCONAZOLE] | 16 | > 30 | > 30 | 9.1 | > 30 | 17 | > 30 |
| CC(CN(C)C)C(C)(O)Cc1ccc(Cl)cc1 (configuration not stated) [CLOBUTINOL] | > 30 | > 10 | > 30 | > 30 | > 30 | > 10 | > 30 |
| CC(C)[C@@H](C)/C=C/[C@@H](C)[C@H]1CC[C@H]2/C(=C/C=C3\C[C@@H](O)CC[C@@H]3C)CCC[C@]12C [DIHYDROTACHYSTEROL] | > 10 | > 10 | > 10 | 11.2 | > 10 | > 10 | – |
| Oc1ccc(CCNCCCCCCNCCc2ccccc2)cc1O [DOPEXAMINE] | 12 | > 30 | > 30 | > 30 | > 30 | > 30 | > 30 |
| CCN1CC(CCN2CCOCC2)C(c2ccccc2)(c2ccccc2)C1=O (configuration not stated) [DOXAPRAM] | > 30 | > 30 | > 30 | > 30 | > 30 | > 30 | > 30 |
| CCc1cc2c(s1)-n1c(C)nnc1CN=C2c1ccccc1Cl [ETIZOLAM] | > 30 | > 30 | > 30 | > 30 | > 30 | > 30 | > 30 |
| CCCC(C)(COC(N)=O)COC(N)=O [MEPROBAMATE] | > 10 | > 10 | > 10 | > 10 | > 10 | > 10 | – |
| O=C(c1cc(Cc2n[nH]c(=O)c3ccccc23)ccc1F)N1CCN(C(=O)C2CC2)CC1 [OLAPARIB] | > 30 | > 10 | > 30 | > 30 | > 30 | > 10 | – |
| NC(=O)NC(=O)Cc1ccccc1 [PHENACEMIDE] | > 10 | > 10 | > 10 | > 10 | > 10 | > 10 | – |
| COc1cc(C(=O)OCc2cccc(COC(=O)c3cc(OC)c(OC)c(OC)c3)n2)cc(OC)c1OC [PIROZADIL] | > 30 | > 30 | > 30 | > 30 | > 30 | – | > 30 |
| CCCN(CCC)S(=O)(=O)c1ccc(C(=O)O)cc1 [PROBENECID] | > 10 | > 10 | > 10 | > 10 | > 10 | > 10 | – |
| CC1=C(/C=C/C(C)=C/C=C/C(C)=C/CO)C(C)(C)CCC1 [RETINOL] | > 10 | > 10 | > 10 | > 30 | > 10 | > 10 | – |
| Cc1cc(C)nc(NS(=O)(=O)c2ccc(N)cc2)n1 [SULFAMETHAZINE] | > 10 | > 10 | > 10 | > 10 | > 10 | > 10 | – |
| CCOC(=O)[C@@H](N)Cc1ccc(-c2cc(O[C@H](c3ccc(Cl)cc3-n3ccc(C)n3)C(F)(F)F)nc(N)n2)cc1 [TELOTRISTAT ETHYL] | 3.1 | > 30 | > 30 | > 30 | > 30 | – | > 30 |
| CC(C)(C)NCC(O)c1ccccc1Cl (configuration not stated) [TULOBUTEROL] | > 30 | > 30 | – | > 30 | > 30 | > 30 | > 30 |

From ChEMBL document CHEMBL5291721, “A preclinical secondary pharmacology resource illuminates target-adverse drug reaction associations of marketed drugs” (Nat Commun, 2023)
